Data as given in article PMC11434840, “Discovery of Benzopyrone-Based Candidates as Potential Antimicrobial and Photochemotherapeutic Agents through Inhibition of DNA Gyrase Enzyme B: Design, Synthesis, In Vitro and In Silico Evaluation” (Pharmaceuticals, 2024).
Like-named read-outs stand apart in the source and are kept apart here.

Assays:
[1] = system: Candida albicans ATCC 10231; assay: Antimicrobial agar cup-plate assay, C. albicans; format: cell-based; design: key to Inhibition Zone (mm) C. albicans: -: no activity; details: for Inhibition Zone (mm) C. albicans: 0.1 mL of compound in DMF, overnight incubation, mean ± SD, at least three experiments
Experimental: (§1) The antimicrobial activity of all newly synthesized compounds was determined using the agar cup-plate method using the Hi-Media agar medium. Xanthotoxin, tobramycin, and amphotericin B were used as reference drugs. All newly synthesized compounds were tested against two strains of Gram-positive bacteria (Bacillus subtilis ATCC 14579 and Staphylococcus aureus ATCC 25923), Gram-negative bacteria (Escherichia coli ATCC 25922), and yeast (Candida albicans ATCC 10231).
(§2) The nutrient agar medium consists of 0.3% of beef extract, 0.5% of peptone, 0.1% dipotassium hydrogen phosphate, and 1.5% agar. Broth cultures of the organisms were prepared by incubating slant agar seeded with the organisms overnight.
(§3) The prepared broth culture (0.02 mL) was carefully added to sterile Petri dishes. Then, 10 mL of the liquefied nutrient agar medium was poured into each dish, mixed uniformly, and allowed to solidify. Using a sterilized cork borer, cups (9 mm) were scooped out of the agar media contained in the Petri dishes. Each test compound (50 mg) was dissolved in 1 mL DMF (50 mg mL^−1), which was used as a stock solution to carry out the twofold dilution technique. A fixed volume (0.1 mL) of the tested compounds dissolved in dimethylformamide (DMF) was added. Each plate contained a cup filled with DMF to disregard the effect of solvent. Additionally, two other cups were filled with tobramycin and xanthotoxin being used as reference drugs. The plates were incubated overnight to examine the antimicrobial activity. Zones of inhibition obtained by each test compound were measured in millimeters and the results are recorded in Table 2.
(§4) GraphPad Prism-version 5 (GraphPad Software, Inc., La Jolla, CA, USA) was used for statistical analysis.

[2] = system: Bacillus subtilis ATCC 14579; assay: Antimicrobial agar cup-plate assay, B. subtilis; format: cell-based; details: 0.1 mL of compound in DMF, overnight incubation, mean ± SD, at least three experiments
Experimental: as §1, §2, §3, §4

[3] = system: Staphylococcus aureus ATCC 25923; assay: Antimicrobial agar cup-plate assay, S. aureus; format: cell-based; design: key: -: no activity; details: 0.1 mL of compound in DMF, overnight incubation, mean ± SD, at least three experiments
Experimental: as §1, §2, §3, §4

[4] = system: Escherichia coli ATCC 25922; assay: Antimicrobial agar cup-plate assay, E. coli; format: cell-based; design: key to Inhibition Zone (mm) E. coli: -: no activity; details: for Inhibition Zone (mm) E. coli: 0.1 mL of compound in DMF, overnight incubation, mean ± SD, at least three experiments
Experimental: as §1, §2, §3, §4

[5] = system: Bacillus subtilis ATCC 14579; assay: Photosensitizing assay (MIC before and after UV irradiation, agar cup-plate); format: cell-based; details: for MIC: Bacillus subtilis, ATCC14579, light or radiation study; for photosensitizing activity against B. subtilis (in words): after 20 min of irradiation
Experimental: The photosensitizing activity was determined using the agar cup-plate method (described in Section 2.3) with Hi-Media agar medium. The antibacterial activity against Bacillus subtilis ATCC 14579 was measured before and after exposure to UV lamp (365 nm). The diameters of the inhibition zones were measured in mm and the results were compared with xanthotoxin. The tested organism used was Bacillus subtilis.
For the photosensitizing activity, xanthotoxin was used as a reference drug and DMF as a negative control. The minimum inhibitory concentrations (MIC) were determined using the agar cup-plate method. Each test compound (50 mg) was dissolved in 1 mL DMF (50 mg mL^−1), which was used as a stock solution to carry out the twofold dilution technique. The sample size for all the compounds was adjusted to 0.1 mL. The solution of the test compound (0.1 mL) was added to the cups. The plates were divided into test plates and duplicate plates. Before irradiation, the test plates were incubated in the dark at 37 °C for 3 h to permit the diffusion of the tested compounds through the agar layer. The duplicate plates were incubated overnight and used as a control for the determination of the antibacterial activity. The covers were removed from the test plates, and the dishes were exposed to UV lamp (365 nm) for 20 min. After irradiation, the plates were left overnight in the dark at 37 °C. MIC, the least concentration preventing visible bacterial growth, was determined in both the control and test, indicating the antibacterial and photosensitizing activity of the tested compounds, respectively.
To evaluate the significance of the difference in the results, each experiment was repeated at least three times. […] GraphPad Prism-version 5 (GraphPad Software, Inc., La Jolla, CA, USA) was used to perform statistical analysis of the results.

[6] = 20 min, B. subtilis, after irradiation with UV lamp (365 nm) for 20 min (photosensitizing activity), 100 μL per cup, read-out: MIC (mg mL^−1) Test
[7] = 20 min, B. subtilis, after irradiation with UV lamp (365 nm) for 20 min (photosensitizing activity), read-out: MIC (mM) Test
[8] = B. subtilis, without irradiation (antibacterial activity), 100 μL per cup, read-out: MIC (mg mL^−1) Control
[9] = B. subtilis, without irradiation (antibacterial activity), read-out: MIC (mM) Control

SMILES | Inhibition Zone (mm) C. albicans [1] | Inhibition Zone (mm) B. subtilis [2] | Inhibition Zone (mm) S. aureus [3] | antibacterial activity against E. coli (in words) [4] | Inhibition Zone (mm) E. coli [4] | MIC [5, 6] | MIC [5, 7] | MIC [5, 8] | MIC [5, 9] | melting point | photosensitizing activity against B. subtilis (in words) [5] | antifungal activity against C. albicans (in words) [1] | MIC (mM) Test ([5]; B. subtilis, after irradiation with UV lamp (365 nm) for 20 min (photosensitizing activity)) | MIC (mg mL^−1) Test ([5]; B. subtilis, after irradiation with UV lamp (365 nm) for 20 min (photosensitizing activity), 100 μL per cup) | MIC (mM) Control ([5]; B. subtilis, without irradiation (antibacterial activity)) | MIC (mg mL^−1) Control ([5]; B. subtilis, without irradiation (antibacterial activity), 100 μL per cup)
C[C@@H]1[C@H](O)[C@@H](C)/C=C/C=C/C=C/C=C/C=C/C=C/C=C/[C@H](O[C@@H]2O[C@H](C)[C@@H](O)[C@H](N)[C@@H]2O)C[C@@H]2O[C@](O)(C[C@@H](O)C[C@@H](O)[C@H](O)CC[C@@H](O)C[C@@H](O)CC(=O)O[C@H]1C)C[C@H](O)[C@H]2C(=O)O [Amphotercin B, amphotericin B, reference compound] | 14 ± 1.414 mm |  |  |  |  |  |  |  |  |  |  |  |  |  |  | 
CCc1cc2c(C)cc(=O)oc2cc1OC(C)C(C)=O (centres unmarked) [Compound 2a, 6-Ethyl-4-methyl-7-(3-oxobutan-2-yloxy)-2H-1-benzopyran-2-one] | 11 ± 0.8165 mm | 15 ± 1.414 mm | 14 ± 1.414 mm | inactive | - | 6250 µg/mL | 22.8 mM | 6250 µg/mL | 22.8 mM | 95 to 97 °C |  |  |  |  |  | 
CCc1cc2c(-c3ccccc3)cc(=O)oc2cc1OC(C)C(C)=O (centres unmarked) [Compound 2b, 6-Ethyl-7-(3-oxobutan-2-yloxy)-4-phenyl-2H-1-benzopyran-2-one] | 15 ± 1.414 mm | 14 ± 0.8165 mm | 22 ± 1.414 mm | inactive | - | 6250 µg/mL | 18.6 mM | 6250 µg/mL | 18.6 mM | 100 to 102 °C |  |  |  |  |  | 
CCc1cc2c(C)cc(=O)oc2c2c(C)c(C)oc12 [Compound 3a, 9-Ethyl-2,3,7-trimethyl-5H-furo[2,3-h]benzopyran-5-one] | 16 ± 0.8165 mm | 20 ± 0.8165 mm | 30 ± 1.414 mm |  | 15 ± 1.414 mm | 780 µg/mL | 3.04 mM | 780 µg/mL | 3.04 mM | 199 to 201 °C | without any photosensitizing activity |  |  |  |  | 
CCc1cc2c(-c3ccccc3)cc(=O)oc2c2c(C)c(C)oc12 [Compound 3b, 2,3-Dimethyl-9-ethyl-7-phenyl-5H-furo[2,3-h]benzopyran-5-one] | 15 ± 1.414 mm | 10 ± 1.414 mm | 22 ± 0.8165 mm |  | 16 ± 1.414 mm | 3120 µg/mL | 9.82 mM | 3120 µg/mL | 9.82 mM | 90 to 92 °C | without any photosensitizing activity |  |  |  |  | 
CCc1cc2c(C)cc(=O)oc2cc1OC1CCCCC1=O (centres unmarked) [Compound 4a, 6-Ethyl-4-methyl-7-(2-oxocyclohexyloxy)-2H-1-benzopyran-2-one] | 18 ± 1.414 mm | 15 ± 0.8165 mm | 24 ± 1.414 mm | inactive | - | 780 µg/mL | 2.6 mM | 3120 µg/mL | 10.4 mM | 160 to 162 °C |  |  |  |  |  | 
CCc1cc2c(-c3ccccc3)cc(=O)oc2cc1OC1CCCCC1=O (centres unmarked) [Compound 4b, 6-Ethyl-7-(2-oxocyclohexyloxy)-4-phenyl-2H-1-benzopyran-2-one] | 14 ± 1.414 mm | 17 ± 0.8165 mm | 29 ± 0.8165 mm | inactive | - | 3120 µg/mL | 8.62 mM | 3120 µg/mL | 8.62 mM | 150 to 152 °C |  |  |  |  |  | 
CCc1cc2c(C)cc(=O)oc2c2c3c(oc12)CCCC3 [Compound 5a, 6-Ethyl-4-methyl-8,9,10,11-tetrahydro-2H-benzofuro[2,3-h]benzopyran-2-one] | 18 ± 0.8165 mm | 22 ± 0.8165 mm | 30 ± 0.8165 mm |  | 16 ± 1.414 mm | 780 µg/mL | 2.76 mM | 3120 µg/mL | 11.1 mM |  |  |  |  |  |  | 
CCc1cc2c(-c3ccccc3)cc(=O)oc2c2c3c(oc12)CCCC3 [Compound 5b, 6-Ethyl-4-phenyl-8,9,10,11-tetrahydro-2H-benzofuro[2,3-h]benzopyran-2-one] | - | 22 ± 1.414 mm | 26 ± 0.8165 mm |  | - | 780 µg/mL | 2.26 mM | 3120 µg/mL | 9.07 mM | 108 to 110 °C |  | inactive |  |  |  | 
NC[C@H]1O[C@H](O[C@H]2[C@H](O)[C@@H](O[C@H]3O[C@H](CO)[C@@H](O)[C@H](N)[C@H]3O)[C@H](N)C[C@@H]2N)[C@H](N)C[C@@H]1O [Tobramycin, reference compound] |  |  | 21 ± 0.8165 mm |  | 20 ± 1.414 mm |  |  |  |  |  |  |  |  |  |  | 
COc1c2occc2cc2ccc(=O)oc12 [Xanthotoxin, reference compound] | 15 ± 0.8165 mm | 13 ± 0.8165 mm | - |  | 25 ± 0.8165 mm |  |  |  |  |  |  |  | 6.94 mM | 1500 µg/mL | 57.82 mM | 12500 µg/mL
